# Experimental data as given in ChEMBL document CHEMBL1201862, “PubChem BioAssay data set” (2004).
# Calls of active or inactive are those of the source.
# Key:
# [1] = target: T1, Induced myeloid leukemia cell differentiation protein Mcl-1 (Homo sapiens, UniProt Q07820); assay type: functional
# [2] = target: Bcl-2-like protein 1 (Homo sapiens, UniProt Q07817); experiment: BCL-XL inhibitors, dose response, selectivity assay for MCL1 inhibitor project, biochemical, fluorescence polarization, 1536-well (AID 2218)
# [3] = target: T1, Induced myeloid leukemia cell differentiation protein Mcl-1; experiment: MCL1-BIM BH3 interaction inhibitors, dose response, biochemical, fluorescence polarization, BIM-BH3 peptide, 1536-well (AID 2217)
# [4] = target: NADPH oxidase 1 (Homo sapiens, UniProt Q9Y5S8); assay type: functional, cell-based;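 also: Cell-based assay with luminescence read-out, IC50 derived from inhibitor dose-response curves; intracellular ROS from endogenous NOX1 in intact HT29 colon cancer cells; potency of inhibitors that lower the ROS luminescence signal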
# [5] = target: T2, Bcl-2-related protein A1 (Mus musculus, UniProt Q07440); experiment: Bfl-1 inhibitors blocking BH3 peptide binding, confirmation, biochemical, TR-FRET, mouse Bfl-1 (AID 621);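 also: TR-FRET binding of GST-Bfl-1 to FITC-labelled Bid peptide via terbium antibody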
# T2 sequence (Q07440 whole entry): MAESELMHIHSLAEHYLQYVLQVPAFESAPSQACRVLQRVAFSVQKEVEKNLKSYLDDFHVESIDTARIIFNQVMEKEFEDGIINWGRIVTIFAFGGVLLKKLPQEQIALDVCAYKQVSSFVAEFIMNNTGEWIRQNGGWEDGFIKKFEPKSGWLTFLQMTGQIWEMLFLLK
# [6] = target: T2, Bcl-2-related protein A1; experiment: Bfl-1 binding inhibitors, SAR follow-up, biochemical, fluorescence polarization (AID 1070)
# [7] = target: Glyceraldehyde-3-phosphate dehydrogenase (Homo sapiens, UniProt P04406)
# [8] = target: T3, Heat shock factor protein 1 (Mus musculus, UniProt P38532); experiment: inhibition of MG132-induced HSE-luciferase signal, confirmation, cell-based, NIH3T3, luminescence, dose retest (AID 2382); assay type: functional;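 also: NIH3T3 fibroblasts with HSF1-driven luciferase reporter stressed by proteasome inhibitor MG132; luminescence from HSF1-driven luciferase expression after 8 hours of MG132 stress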
# T3 sequence (P38532 whole entry): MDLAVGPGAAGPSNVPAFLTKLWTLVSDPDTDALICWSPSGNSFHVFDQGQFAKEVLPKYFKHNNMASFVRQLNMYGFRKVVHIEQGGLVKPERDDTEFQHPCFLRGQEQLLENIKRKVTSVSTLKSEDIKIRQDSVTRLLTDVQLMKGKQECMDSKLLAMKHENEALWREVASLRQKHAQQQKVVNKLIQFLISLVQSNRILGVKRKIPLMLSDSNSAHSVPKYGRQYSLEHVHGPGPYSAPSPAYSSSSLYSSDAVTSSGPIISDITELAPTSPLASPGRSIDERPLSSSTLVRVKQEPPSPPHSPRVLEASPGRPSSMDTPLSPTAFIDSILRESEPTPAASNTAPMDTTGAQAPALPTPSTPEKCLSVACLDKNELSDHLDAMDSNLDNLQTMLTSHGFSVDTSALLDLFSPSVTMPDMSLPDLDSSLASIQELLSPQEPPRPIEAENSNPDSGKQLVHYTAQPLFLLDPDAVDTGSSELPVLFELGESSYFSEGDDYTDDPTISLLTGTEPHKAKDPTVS
# [9] = target: T4, Mucolipin-3 (Homo sapiens, UniProt Q8TDD5); experiment: Dose response cell-based high-throughput screening assay for agonists of the transient receptor potential channel ML3 (TRPML3). [Related pubchem assays: 1526, 1424, 1448 ]; assay type: functional
# T4 sequence (Q8TDD5 whole entry): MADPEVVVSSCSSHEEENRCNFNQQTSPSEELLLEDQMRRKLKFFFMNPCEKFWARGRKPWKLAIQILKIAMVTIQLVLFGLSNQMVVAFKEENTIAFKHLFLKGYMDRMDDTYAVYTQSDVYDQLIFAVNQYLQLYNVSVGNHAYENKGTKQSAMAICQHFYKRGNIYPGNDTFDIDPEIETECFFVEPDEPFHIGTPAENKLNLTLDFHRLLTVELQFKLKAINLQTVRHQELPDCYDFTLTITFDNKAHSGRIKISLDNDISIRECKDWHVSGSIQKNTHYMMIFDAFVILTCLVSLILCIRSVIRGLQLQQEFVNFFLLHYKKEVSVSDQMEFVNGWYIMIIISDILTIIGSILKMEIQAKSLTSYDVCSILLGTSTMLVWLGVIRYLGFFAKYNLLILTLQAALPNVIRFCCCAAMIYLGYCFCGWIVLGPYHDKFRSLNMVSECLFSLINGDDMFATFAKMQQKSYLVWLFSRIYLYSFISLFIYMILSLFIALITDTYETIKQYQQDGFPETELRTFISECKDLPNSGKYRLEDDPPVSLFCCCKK
# [10] = target: Ion channel NompC (Danio rerio, UniProt Q7T1G6); experiment: Fluorescence counterscreen assay for TRPML3 agonists: dose response cell-based high-throughput screening assay to identify agonists of the transient receptor potential channel N1 (TRPN1). [Related pubchem assays: 1526, 1424, 1448 ]; assay type: functional
# [11] = target: T5, Protein RecA (Mycobacterium tuberculosis, UniProt P9WHJ3); experiment: Fluorescence Cell-Free Homogeneous Dose Retest to Identify Inhibitors of RecA-Intein Splicing Activity. [Related pubchem assays (depositor defined):AID2097, AID2223, AID489010, AID492950]; assay type: functional
# T5 sequence (P9WHJ3 whole entry): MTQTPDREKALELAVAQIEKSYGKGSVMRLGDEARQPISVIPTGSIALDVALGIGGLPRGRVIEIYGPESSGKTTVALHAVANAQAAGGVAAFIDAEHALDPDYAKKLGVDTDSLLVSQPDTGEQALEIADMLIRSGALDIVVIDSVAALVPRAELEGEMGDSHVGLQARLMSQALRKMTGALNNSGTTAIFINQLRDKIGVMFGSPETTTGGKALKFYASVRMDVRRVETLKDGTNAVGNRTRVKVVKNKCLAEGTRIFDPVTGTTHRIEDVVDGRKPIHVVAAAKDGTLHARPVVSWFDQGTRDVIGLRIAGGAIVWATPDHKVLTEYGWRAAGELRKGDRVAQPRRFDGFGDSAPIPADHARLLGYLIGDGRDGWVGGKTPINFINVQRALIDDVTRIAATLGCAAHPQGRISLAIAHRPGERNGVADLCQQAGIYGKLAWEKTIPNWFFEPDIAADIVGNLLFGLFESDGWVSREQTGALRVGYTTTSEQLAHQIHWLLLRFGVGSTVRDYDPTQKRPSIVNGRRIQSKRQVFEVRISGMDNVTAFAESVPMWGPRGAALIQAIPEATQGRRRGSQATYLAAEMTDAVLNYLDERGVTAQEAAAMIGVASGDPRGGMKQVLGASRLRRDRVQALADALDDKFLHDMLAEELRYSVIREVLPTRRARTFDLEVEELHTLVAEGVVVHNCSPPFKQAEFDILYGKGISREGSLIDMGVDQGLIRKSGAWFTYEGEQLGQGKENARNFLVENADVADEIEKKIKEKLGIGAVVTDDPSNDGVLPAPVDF
# [12] = target: Tyrosyl-DNA phosphodiesterase 2 (Homo sapiens, UniProt O95551); experiment: human TDP2 enzyme inhibitors, dose response, biochemical, epi absorbance, IC50 (AID 743297)
# [13] = target: T6, Replicative DNA helicase DnaB (Mycobacterium tuberculosis, UniProt P9WMR3); experiment: DnaB intein splicing inhibitors, dose response, biochemical, cell-free fluorescence (AID 449749); assay type: functional
# T6 sequence (P9WMR3 whole entry): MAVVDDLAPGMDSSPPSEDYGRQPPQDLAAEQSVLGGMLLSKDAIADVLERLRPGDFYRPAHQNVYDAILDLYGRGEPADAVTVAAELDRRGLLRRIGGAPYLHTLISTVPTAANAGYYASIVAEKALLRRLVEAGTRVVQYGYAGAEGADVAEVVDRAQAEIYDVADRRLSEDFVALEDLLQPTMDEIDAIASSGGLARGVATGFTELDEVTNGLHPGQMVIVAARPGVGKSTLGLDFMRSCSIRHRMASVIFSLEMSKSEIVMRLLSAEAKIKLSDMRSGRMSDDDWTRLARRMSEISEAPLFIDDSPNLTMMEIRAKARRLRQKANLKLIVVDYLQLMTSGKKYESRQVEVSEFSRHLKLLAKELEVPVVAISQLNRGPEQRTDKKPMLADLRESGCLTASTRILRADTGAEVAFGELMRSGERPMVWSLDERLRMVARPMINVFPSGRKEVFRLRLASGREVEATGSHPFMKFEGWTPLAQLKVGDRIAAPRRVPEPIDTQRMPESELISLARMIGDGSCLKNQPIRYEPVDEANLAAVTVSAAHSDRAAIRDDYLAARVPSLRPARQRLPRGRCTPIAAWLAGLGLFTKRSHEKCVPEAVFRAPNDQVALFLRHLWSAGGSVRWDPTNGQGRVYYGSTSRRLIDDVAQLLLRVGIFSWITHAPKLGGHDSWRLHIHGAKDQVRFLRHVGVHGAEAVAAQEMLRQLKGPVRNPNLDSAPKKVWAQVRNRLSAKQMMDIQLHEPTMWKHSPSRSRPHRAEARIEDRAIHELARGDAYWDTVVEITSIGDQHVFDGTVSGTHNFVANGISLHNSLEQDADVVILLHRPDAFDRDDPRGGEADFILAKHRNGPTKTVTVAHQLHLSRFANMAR
# [14] = target: Mothers against decapentaplegic homolog 3 (Homo sapiens, UniProt P84022); experiment: SMAD3 transcription factor inhibitors, dose response (AID 715); assay type: functional
# [15] = target: Lysine-specific demethylase 4C (Homo sapiens, UniProt Q9H3R0); experiment: GASC-1 (JMJD2C) histone demethylase inhibitors, dose response, biochemical, DELFIA europium, cherry-picked samples (AID 488835); assay type: functional
# [16] = enhancers of respiration in Yfh1-depleted yeast, dose response, Friedreich's ataxia, plus single-dose screen (AID 1465); assay type: functional;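 also: yeast depleted of Yfh1p frataxin homolog grown on glycerol needing respiration; WST-1 tetrazolium dye reduction as measure of cellular dehydrogenase metabolic activity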
# [17] = target: Sphingosine 1-phosphate receptor 2 (Homo sapiens, UniProt O95136); experiment: Dose Response Cell Based Assay for Agonists of the S1P2 Receptor of Purchased Analogues. [Related pubchem assays: 729, 843, 854, 736 ]; assay type: functional
# [18] = Luminescence Cell-Based Dose Response HTS to Identify Activators of Luciferase Translation or Activity in H4 […] Cells. [Related pubchem assays: 1829 (Project Summary), 1814 (Primary HTS)]; assay type: functional
# [19] = tested on: H4; experiment: Luminescence Cell-Based Dose Response HTS to Identify Activators of 5'UTR Stem-Loop Driven Prion Protein mRNA Translation in H4 Neuroglioblastoma Cells. [Related pubchem assays: 1829 (Project Summary), 1814 (Primary HTS)]; assay type: functional; details: Homo sapiens
# [20] = insulin promoter down-regulators in MIN6 cells, imaging, high-content screening, mouse beta cells (AID 1628); assay type: functional
# [21] = cytotoxicity in MIN6 insulinoma cells, dose response, cytotoxicity control, cell-based, mouse insulinoma (AID 2122); assay type: functional;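 also: confirmatory high-throughput counterscreen run to flag cytotoxic compounds; mouse MIN-6 beta cells carrying an insulin promoter eGFP reporter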
# [22] = target: Protein-tyrosine kinase 2-beta (Homo sapiens, UniProt Q14289);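 also: potency of inhibitors of PYK2 kinase phosphorylation of poly-GT substrate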
# [23] = Luminescence Cell-Based Dose Confirmation HTS to Identify Activators of 5'UTR Stem-Loop Driven Alpha-Synuclein mRNA Translation in H4 Neuroglioblastoma Cells. [Related pubchem assays: 1829 (Project Summary), 1814 (Primary HTS)]; assay type: functional
# T1 sequence (Q07820 whole entry): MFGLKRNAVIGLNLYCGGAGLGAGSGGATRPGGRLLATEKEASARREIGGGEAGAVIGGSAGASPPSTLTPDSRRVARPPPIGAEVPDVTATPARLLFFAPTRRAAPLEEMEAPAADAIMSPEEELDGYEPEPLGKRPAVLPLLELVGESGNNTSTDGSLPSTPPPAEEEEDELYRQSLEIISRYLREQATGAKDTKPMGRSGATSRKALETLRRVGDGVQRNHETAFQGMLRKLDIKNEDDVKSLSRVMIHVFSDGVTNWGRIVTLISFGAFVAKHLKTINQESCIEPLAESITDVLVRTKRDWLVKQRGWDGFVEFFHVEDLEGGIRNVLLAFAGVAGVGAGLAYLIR
# Sequence of Glyceraldehyde-3-phosphate dehydrogenase (P04406 whole entry): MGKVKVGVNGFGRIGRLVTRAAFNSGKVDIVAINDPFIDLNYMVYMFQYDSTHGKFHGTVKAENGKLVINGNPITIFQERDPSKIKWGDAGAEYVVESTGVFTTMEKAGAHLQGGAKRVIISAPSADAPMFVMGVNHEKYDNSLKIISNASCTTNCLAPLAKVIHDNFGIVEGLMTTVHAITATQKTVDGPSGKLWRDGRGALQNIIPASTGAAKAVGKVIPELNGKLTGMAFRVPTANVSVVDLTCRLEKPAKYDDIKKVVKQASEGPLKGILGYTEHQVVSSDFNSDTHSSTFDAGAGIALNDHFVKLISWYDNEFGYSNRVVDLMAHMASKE
# Sequence of Sphingosine 1-phosphate receptor 2 (O95136 whole entry): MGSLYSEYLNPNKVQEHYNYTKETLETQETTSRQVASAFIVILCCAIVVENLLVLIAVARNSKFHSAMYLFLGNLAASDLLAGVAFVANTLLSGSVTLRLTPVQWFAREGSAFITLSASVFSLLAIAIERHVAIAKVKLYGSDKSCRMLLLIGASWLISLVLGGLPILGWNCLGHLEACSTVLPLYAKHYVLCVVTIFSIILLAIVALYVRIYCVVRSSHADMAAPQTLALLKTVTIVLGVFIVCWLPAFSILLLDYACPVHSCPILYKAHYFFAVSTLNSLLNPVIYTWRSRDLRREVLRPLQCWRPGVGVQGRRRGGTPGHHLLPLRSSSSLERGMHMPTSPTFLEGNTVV
# Sequence of Protein-tyrosine kinase 2-beta (Q14289 whole entry): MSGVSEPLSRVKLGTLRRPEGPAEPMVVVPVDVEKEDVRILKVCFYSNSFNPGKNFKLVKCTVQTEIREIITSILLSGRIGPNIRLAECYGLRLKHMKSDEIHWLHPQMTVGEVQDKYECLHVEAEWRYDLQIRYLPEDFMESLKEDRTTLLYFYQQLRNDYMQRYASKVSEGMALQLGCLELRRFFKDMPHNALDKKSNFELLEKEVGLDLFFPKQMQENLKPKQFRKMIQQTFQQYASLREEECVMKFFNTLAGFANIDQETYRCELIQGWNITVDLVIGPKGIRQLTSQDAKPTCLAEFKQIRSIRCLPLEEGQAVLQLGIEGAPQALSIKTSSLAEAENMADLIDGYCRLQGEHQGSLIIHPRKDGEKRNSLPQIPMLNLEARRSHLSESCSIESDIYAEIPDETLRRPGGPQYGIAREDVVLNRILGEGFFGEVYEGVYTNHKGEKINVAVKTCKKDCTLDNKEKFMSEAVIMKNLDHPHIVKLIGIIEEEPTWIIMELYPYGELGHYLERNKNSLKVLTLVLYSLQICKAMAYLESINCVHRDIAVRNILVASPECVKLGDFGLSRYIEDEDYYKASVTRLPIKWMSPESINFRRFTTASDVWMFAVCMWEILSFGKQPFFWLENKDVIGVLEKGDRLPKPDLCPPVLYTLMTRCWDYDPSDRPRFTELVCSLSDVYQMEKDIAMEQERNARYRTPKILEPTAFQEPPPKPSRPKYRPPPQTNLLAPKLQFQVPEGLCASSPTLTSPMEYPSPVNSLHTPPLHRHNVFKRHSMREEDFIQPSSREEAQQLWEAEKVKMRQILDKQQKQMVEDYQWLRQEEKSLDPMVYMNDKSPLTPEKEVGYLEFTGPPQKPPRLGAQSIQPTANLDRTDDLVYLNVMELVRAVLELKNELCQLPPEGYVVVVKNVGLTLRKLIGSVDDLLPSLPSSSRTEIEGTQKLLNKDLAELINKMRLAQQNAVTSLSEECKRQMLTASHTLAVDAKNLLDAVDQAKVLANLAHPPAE
# Sequence of Ion channel NompC (Q7T1G6 whole entry): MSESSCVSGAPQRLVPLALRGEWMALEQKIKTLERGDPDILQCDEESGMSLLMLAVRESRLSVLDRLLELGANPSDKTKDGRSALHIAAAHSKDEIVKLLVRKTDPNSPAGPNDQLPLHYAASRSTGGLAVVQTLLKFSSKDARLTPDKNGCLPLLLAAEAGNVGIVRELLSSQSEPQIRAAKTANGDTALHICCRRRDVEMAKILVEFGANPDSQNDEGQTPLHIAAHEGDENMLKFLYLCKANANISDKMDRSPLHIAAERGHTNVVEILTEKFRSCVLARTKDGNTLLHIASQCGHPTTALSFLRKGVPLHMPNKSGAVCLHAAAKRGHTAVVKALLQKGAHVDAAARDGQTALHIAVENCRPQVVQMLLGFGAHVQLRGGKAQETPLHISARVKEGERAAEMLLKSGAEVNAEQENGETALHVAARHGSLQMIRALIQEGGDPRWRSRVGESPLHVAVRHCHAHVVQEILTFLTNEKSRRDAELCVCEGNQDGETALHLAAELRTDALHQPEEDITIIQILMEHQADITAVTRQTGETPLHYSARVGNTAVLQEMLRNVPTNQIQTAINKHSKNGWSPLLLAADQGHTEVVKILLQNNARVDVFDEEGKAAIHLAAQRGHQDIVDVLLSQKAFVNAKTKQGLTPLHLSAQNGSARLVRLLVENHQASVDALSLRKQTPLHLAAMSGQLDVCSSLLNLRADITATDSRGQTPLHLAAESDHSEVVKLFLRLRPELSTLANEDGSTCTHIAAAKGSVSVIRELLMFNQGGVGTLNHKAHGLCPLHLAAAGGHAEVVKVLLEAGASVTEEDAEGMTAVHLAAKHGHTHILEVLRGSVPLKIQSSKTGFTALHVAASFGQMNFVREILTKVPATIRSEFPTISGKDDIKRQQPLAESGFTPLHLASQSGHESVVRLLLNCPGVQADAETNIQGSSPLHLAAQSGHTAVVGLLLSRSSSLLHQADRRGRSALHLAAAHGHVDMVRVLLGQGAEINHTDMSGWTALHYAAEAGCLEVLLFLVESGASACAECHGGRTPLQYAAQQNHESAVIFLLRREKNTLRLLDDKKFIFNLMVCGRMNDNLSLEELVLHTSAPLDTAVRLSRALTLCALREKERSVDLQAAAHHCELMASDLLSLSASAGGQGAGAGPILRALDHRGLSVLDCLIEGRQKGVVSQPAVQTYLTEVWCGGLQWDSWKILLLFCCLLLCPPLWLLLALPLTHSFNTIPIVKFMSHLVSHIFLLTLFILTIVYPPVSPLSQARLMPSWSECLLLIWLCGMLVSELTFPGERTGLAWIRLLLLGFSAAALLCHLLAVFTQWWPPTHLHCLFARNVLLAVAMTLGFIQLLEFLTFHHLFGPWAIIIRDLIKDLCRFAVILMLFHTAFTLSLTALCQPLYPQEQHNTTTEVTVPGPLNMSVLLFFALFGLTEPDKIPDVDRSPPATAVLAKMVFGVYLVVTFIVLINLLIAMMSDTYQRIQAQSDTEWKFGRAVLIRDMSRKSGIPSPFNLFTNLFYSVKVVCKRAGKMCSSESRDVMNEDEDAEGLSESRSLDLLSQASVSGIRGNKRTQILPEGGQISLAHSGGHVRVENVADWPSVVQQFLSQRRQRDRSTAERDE
# Sequence of Bcl-2-like protein 1 (Q07817 whole entry): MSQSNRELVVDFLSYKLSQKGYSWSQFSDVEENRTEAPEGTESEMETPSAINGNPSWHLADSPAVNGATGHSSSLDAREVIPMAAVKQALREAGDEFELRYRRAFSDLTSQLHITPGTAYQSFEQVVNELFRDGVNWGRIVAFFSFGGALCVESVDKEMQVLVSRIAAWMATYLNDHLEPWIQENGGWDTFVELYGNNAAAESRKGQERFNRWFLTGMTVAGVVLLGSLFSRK
# Sequence of Mothers against decapentaplegic homolog 3 (P84022 whole entry): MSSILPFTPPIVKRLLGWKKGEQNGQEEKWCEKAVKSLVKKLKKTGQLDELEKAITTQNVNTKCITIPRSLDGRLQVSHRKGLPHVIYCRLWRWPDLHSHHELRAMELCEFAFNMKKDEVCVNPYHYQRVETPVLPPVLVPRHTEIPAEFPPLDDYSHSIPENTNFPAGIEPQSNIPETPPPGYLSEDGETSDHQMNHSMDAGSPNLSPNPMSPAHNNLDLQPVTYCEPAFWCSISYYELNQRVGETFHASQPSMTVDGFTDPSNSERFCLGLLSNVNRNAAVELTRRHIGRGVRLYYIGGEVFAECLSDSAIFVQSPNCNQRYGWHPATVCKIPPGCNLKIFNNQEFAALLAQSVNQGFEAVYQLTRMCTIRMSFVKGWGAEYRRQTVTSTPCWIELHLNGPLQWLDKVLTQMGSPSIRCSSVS
# Sequence of Tyrosyl-DNA phosphodiesterase 2 (O95551 whole entry): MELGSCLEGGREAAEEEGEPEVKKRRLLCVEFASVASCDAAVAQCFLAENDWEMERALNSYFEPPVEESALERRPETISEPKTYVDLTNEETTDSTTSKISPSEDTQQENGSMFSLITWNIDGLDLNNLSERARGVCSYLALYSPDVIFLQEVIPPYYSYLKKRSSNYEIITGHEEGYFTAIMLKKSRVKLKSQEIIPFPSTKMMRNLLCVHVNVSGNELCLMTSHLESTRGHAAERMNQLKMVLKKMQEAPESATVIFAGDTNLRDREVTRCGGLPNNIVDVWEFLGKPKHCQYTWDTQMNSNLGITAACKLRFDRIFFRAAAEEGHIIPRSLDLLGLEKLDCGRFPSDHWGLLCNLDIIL
smiles,measurement,setting,value
Nc1nc(S)c2ncn(C3OC(CO)C(O)C3O)c2n1 (stereo not drawn),IC50,[1],7.34 µM (active)
same,IC50,[2],34 µM (not active)
same,IC50,[3],4.94 µM (active)
O=C(O)c1sc2ccccc2c1Cl,IC50,[4],> 17 µM (not active)
O=C1C(Cl)=C(Cl)C(=O)N1c1cc(Cl)cc(Cl)c1,IC50,[5],2.07 µM (active)
same,IC50,[6],1.42 µM (active)
same,IC50,[7],> 100 µM (not active)
Cc1ccc(NC(=O)c2cnc(N3CCN(c4ccccn4)CC3)c3ccccc23)c(Br)c1,EC50,[8],8.67 µM (active)
same,EC50,[9],4.96 µM (active)
same,EC50,[10],> 29.9 µM (not active)
CC1(C)CC(=O)C(C2(O)C(=O)NC(=O)NC2=O)=C(O)C1,EC50,[11],2.23 µM (active)
same,IC50,[12],14.5 µM (inactive)
same,AC50,[13],1.23 µM (active)
same,IC50,[14],2.3 µM (active)
same,AC50,[15],5.57 µM (active)
CCOc1ccc(N=Nc2c(=O)[nH]n3c(C)cc(C)nc23)cc1,EC50,[16],> 100 µM (active)
Cc1cc(C(=O)CN2C(=O)NC(Cc3ccccc3)C2=O)c(C)n1Cc1cccs1 (stereo not drawn),EC50,[17],> 30 µM (not active)
Cc1ccc2[nH]c3c(NCc4ccco4)ncnc3c2c1,EC50,[18],20.1 µM (active)
same,EC50,[19],17.8 µM (active)
same,IC50,[20],2.53 µM (active)
same,IC50,[21],2.95 µM (active)
same,IC50,[22],> 69.5 µM (not active)
same,EC50,[23],29.1 µM (active)
